In PMC5656836, “Distinct activation mechanisms trigger the trypanocidal activity of DNA damaging prodrugs” (Molecular Microbiology, 2017):
Where two headings read alike, the source gives them in different places.

What was measured:
Format in all cases: cell-based
[1] = test system: bloodstream form T. brucei; assay: Growth inhibition of wild type / control bloodstream form T. brucei (resazurin); settings: for EC50: Trypanosoma brucei
T. cruzi epimastigotes = assay: Growth inhibition of T. cruzi epimastigotes (resazurin); settings: for EC50: Trypanosoma cruzi, 336 h, read-out: T. cruzi EC50
L. major promastigotes = assay: Growth inhibition of L. major promastigotes (resazurin); settings: for EC50: Leishmania major, 144 h, read-out: L. major EC50
[2] = test system: differentiated THP‐1 cells; assay: Mammalian inhibition assay, differentiated THP-1 cells; settings: Homo sapiens, read-out: THP‐1 EC50
[3] = test system: T. brucei over expressing TbNTR (Tbntr++); assay: microbe, parasite or virus in culture; settings: for EC50: Trypanosoma brucei, read-out: EC50 Tbntr++
[4] = test system: T. brucei over expressing TbCPR2 (Tbcpr2++); assay: microbe, parasite or virus in culture; settings: for EC50: Trypanosoma brucei, read-out: EC50 Tbcpr2++
[5] = test system: T. brucei Tbsnm1 null mutants (ΔTbsnm1); assay: microbe, parasite or virus in culture; settings: for EC50: Trypanosoma brucei, read-out: EC50 ΔTbsnm1
[6] = 72 h, bloodstream form, 3 days, Table 1, activity of some compounds previously reported (Hall et al., 2012), read-out: T. brucei EC50
[7] = 72 h, differentiated THP‐1 cells, 3 days
[8] = Selectivity Index: fold difference in EC50 of THP‐1 line relative to parasite
[9] = Table 2, parasites expressing wild type levels, read-out: EC50 Control
[10] = Table 4, wild type T. brucei, read-out: EC50 Control

| Structure (SMILES) | EC50 [1, 6] | EC50 (T. cruzi epimastigotes; epimastigotes, 14 days) | EC50 (L. major promastigotes; promastigotes, 6 days) | T. cruzi SI (T. cruzi epimastigotes) | EC50 ([1]; 72 h, read-out: T. brucei EC50) | EC50 (T. cruzi epimastigotes) | EC50 (L. major promastigotes) | further results |
| --- | --- | --- | --- | --- | --- | --- | --- | --- |
| O=C1C(Br)=C(N2CC2)C(=O)C(Br)=C1N1CC1 [ABQ3] | 0.4 ± 0.03 µM | 6.2 ± 1.16 µM | 0.199 ± 0.004 µM |  |  |  |  |  |
| O=C1C(F)=C(N2CC2)C(=O)C(F)=C1N1CC1 [ABQ4] | 1.18 ± 0.16 µM | 0.106 ± 0.025 µM | 0.663 ± 0.006 µM |  |  |  |  |  |
| COC1=C(N2CC2)C(=O)C(OC)=C(N2CC2)C1=O [ABQ6] | 0.283 ± 0.041 µM | 0.205 ± 0.053 µM | 0.664 ± 0.002 µM | 5 |  |  |  | EC50 [2, 7]: 1.07 ± 0.159 µM |
| CCCOC1=C(N2CC2)C(=O)C(OCCC)=C(N2CC2)C1=O [ABQ8] |  |  |  | 2 | 0.67 ± 0.03 µM | 1.3 ± 0.108 µM | 1.87 ± 0.184 µM | T. brucei SI [1]: 4; EC50 ([2]; THP-1, 72 h): 2.95 ± 0.77 µM; L. major SI (L. major promastigotes): 2 |
| CC(C)NC1=C(N2CC2)C(=O)C(NC(C)C)=C(N2CC2)C1=O [ABQ13] |  |  |  |  | > 10 µM | 5.55 ± 0.24 µM | > 10 µM |  |
| O=C1C(F)=C(N2CC2)C(=O)C(N2CCOCC2)=C1N1CC1 [ABQ14] |  |  |  |  | > 10 µM | 0.445 ± 0.03 µM | 2.27 ± 0.017 µM |  |
| CC(=O)NC1=C(N2CC2)C(=O)C(NC(C)=O)=C(N2CC2)C1=O [ABQ15] |  |  |  |  | > 10 µM | 3.31 ± 0.2 µM | > 10 µM |  |
| C[C@@H]1CN1C1=CC(=O)C(N2C[C@H]2C)=CC1=O [ABQ23] | 2.3 ± 0.06 µM | 2.18 ± 0.67 µM | 0.348 ± 0.166 µM | <1 |  |  |  | Fold difference in EC50 Tbntr++ relative to control [3]: 3315 ± 540 (1.13); EC50 [3]: 3.31 µM; Fold difference in EC50 Tbcpr2++ relative to control [4]: 3556 ± 96 (1.21); EC50 [4]: 3.56 µM; Ratio of EC50 values ΔTbsnm1 / control [5]: 1.01; Susceptibility of Tbsnm1 null mutants relative to wild type / control (fold more susceptible) [5]: no significant difference; EC50 [5]: 2.41 ± 0.16 µM; T. brucei SI [1, 8]: <1; EC50 [1, 9]: 2.94 ± 0.42 µM; EC50 [1, 10]: 2.3 ± 0.06 µM; EC50 [2, 7]: < 0.4 µM |
| C[C@H]1CN1C1=CC(=O)C(N2C[C@@H]2C)=CC1=O [ABQ24] | 1.47 ± 0.12 µM | 0.037 ± 0.001 µM | 0.473 ± 0.123 µM | <11 |  |  |  | Fold difference in EC50 Tbntr++ relative to control [3]: 2090 ± 160 (1.42); EC50 [3]: 2.09 µM; Fold difference in EC50 Tbcpr2++ relative to control [4]: 1698 ± 23 (1.16); EC50 [4]: 1.7 µM; Ratio of EC50 values ΔTbsnm1 / control [5]: 0.77; Susceptibility of Tbsnm1 null mutants relative to wild type / control (fold more susceptible) [5]: no significant difference; EC50 [5]: 1.13 ± 0.1 µM; T. brucei SI [1, 8]: <1; EC50 [1, 9]: 1.47 ± 0.12 µM; EC50 [1, 10]: 1.47 ± 0.12 µM; EC50 [2, 7]: < 0.4 µM; L. major SI (L. major promastigotes): <1 |
| CC1CN1C1=C(Br)C(=O)C(N2CC2C)=C(Br)C1=O (stereo not shown) [ABQ25] | > 10 µM |  | 0.08 ± 0.006 µM |  |  |  |  | L. major EC50 (L. major promastigotes; promastigotes, 6 days): high potency |
| CC1(C)CN1C1=C(Br)C(=O)C(N2CC2(C)C)=C(Br)C1=O [ABQ26] |  |  |  |  | > 10 µM | 8.64 ± 0.736 µM | 2.36 ± 0.23 µM |  |
| CC1CN1C1=C(Cl)C(=O)C(N2CC2C)=C(Cl)C1=O (stereo not shown) [ABQ27] | > 10 µM | 0.62 ± 0.18 µM | 0.21 ± 0.01 µM |  |  |  |  |  |
| CC1CN1C1=C(F)C(=O)C(N2CC2C)=C(F)C1=O (stereo not shown) [ABQ29] |  | 0.975 ± 0.025 µM | 0.175 ± 0.005 µM |  |  |  |  |  |
| CC1(C)CN1C1=C(F)C(=O)C(N2CC2(C)C)=C(F)C1=O [ABQ30] |  |  |  | 4 | 7.4 ± 0.19 µM | 0.98 ± 0.025 µM | 0.174 ± 0.01 µM | Fold difference in EC50 Tbntr++ relative to control [3]: 8670 ± 1670 (1.12); EC50 [3]: 8.67 µM; T. brucei SI [1]: <1; EC50 ([1]; read-out: EC50 Control): 7.4 ± 0.19 µM; EC50 ([2]; THP-1, 72 h): 3.75 ± 0.32 µM; L. major SI (L. major promastigotes): 22 |
